Measurements reported in patent US20140377265A1, “ANTICOAGULANT ANTIDOTES” (BOEHRINGER INGELHEIM INTERNATIONAL GMBH, priority 2011, published 2014).

Tests used:
[1] = tested on: activated partial thromboplastin time; settings: cited from earlier work
[2] = tested on: thrombin clotting time in human plasma; assay: Thrombin clotting time assay, dabigatran standard curve in human plasma; type: biochemical
Method: Briefly human plasma is obtained by taking whole blood into 3.13% sodium citrate. This is then centrifuged to obtain platelet free plasma and transferred to a separate tube and frozen until required on the day of the assay. Plasma is thawed at 37° C. on the day of the assay.
The thrombin clotting time is performed as follows. First thrombin is diluted to manufacturer's specification (3 IU/mL thrombin) in the buffer provided (Dade Behring Test kit) and prewarmed to 37° C. It is used within 2 hrs of being prepared. All assays were performed on a commercially available CL4 clotting machine (Behnk Electronics, Norderstadt, Germany). Fifty μL of plasma is pipetted into provided cuvettes with a magnetic stirrer and allowed to stir for 2 min in the well preheated to 37° C. in the CL4 machine. At this point 100 μL of the thrombin solution is added and the time required for the plasma sample to clot is recorded automatically by the CL4.

SMILES | prolongation of the activated partial thromboplastin time compared with dabigatran [1] | thrombin clotting time ([2]; 200 nM dabigatran preincubated with human plasma) | elevation in clotting time over baseline ([2]; 200 nM dabigatran, human plasma) | increase in clotting time over baseline ([2]; 500 nM dabigatran, human plasma)
Cn1c(CNc2ccc(C(=N)N)cc2)nc2cc(C(=O)N(CCC(=O)OC3OC(C(=O)O)C(O)C(O)C3O)c3ccccn3)ccc21 (stereo not shown) [1-O-acylglucuronide] | equipotent prolongation | – | – | –
Cn1c(CNc2ccc(C(=N)N)cc2)nc2cc(C(=O)N(CCC(=O)O)c3ccccn3)ccc21 [dabigatran, N-[2-(4-Amidinophenylaminomethyl)-1-methyl-1H-benzimidazol-5-ylcarbonyl]-N-(2-pyridyl)-beta-alanine] | – | 51 s | ~5 fold | ~10 fold
